Usually melting point stands for the temperature of the solid-liquid transition.

SMILES strings stand for the structures. Bounds are passed on as bounds.

Consider `COc1ccnc(C(=O)N[C@H]2COC(=O)[C@H](CC(=O)OC(C)(C)C)[C@@H](OC(=O)C(C)C)[C@H](C)OC2=O)c1O`, for which the melting point lay in the range of 192 to 194 °C.
In turn, `COC(=O)c1cccc(OCc2ncc3ccccc3n2)c1` had a melting point of 78 to 80 °C.
Consider `CC(C)(C)c1cc(C(C(=O)O)c2ccc(O)c(C(C)(C)C)c2)ccc1O`, for which the melting point is 173 °C.
On to `O=C1CC(c2ccccc2)C(=O)N1c1cc(Cc2n[nH]c(=O)c3ccccc23)ccc1F` (stereo not given), for which the melting point was in the range of 114 to 120 °C.
`CC(C)NOP(=O)(O)C(C(C)C)N(CC(=O)OCCCl)C(=O)C(F)(F)F` (stereo not given) returned a melting point of 87.5 to 89 °C.
For `CN(C)c1cc2c(cc1Cl)NC(=O)CC(c1cccc(-c3nc(CN4CCOCC4)cs3)c1)=N2` the value was 138 to 143 °C; for `CCc1sc2c(c1S(=O)(=O)c1ccc(O)cc1)CC(Cc1ccccc1Cl)NC2` (stereo not given), 176 °C.
Regarding `O=Cc1cc(F)c(O)c(F)c1O`, the melting point fell in the range of 141 to 143 °C.
With `O=C(O)C1Cc2ccccc2N1c1ncccn1` (stereo not given), the melting point was 249 to 250 °C.
For `CC(=O)N1CCC(CCC(=O)c2ccc(N(C)C)cc2)CC1` the value was 158 to 160 °C; for `CC(=O)CC(=O)NC1CC1`, 65 to 66 °C; for `CCCCc1nc2c(c(=O)[nH]1)CN(C(C)=O)CC2`, 106 to 113 °C.
For `OCCOc1nc2ncnc(NCc3ccco3)c2[nH]1`, the melting point was in the range of 182 to 184 °C.
On to `CCCCCCCCN(C[C@H]1CCC[C@H](CN(CCCCCCCC)C(=O)Nc2ccc(N(C)C)cc2)C1)C(=O)Nc1ccc(N(C)C)cc1` (relative stereo), for which the melting point lay within 115 to 119 °C.
Turning to `O=c1cc(C(F)(F)F)c2c(O)cc(O)cc2o1`, the melting point was 212 to 214 °C.
Take `O=C(NCC1Cc2cccc(-c3c(Cl)cccc3Cl)c2O1)OCc1ccccc1` (stereo not given): the melting point fell in the range of 198 to 200 °C.
In turn, `Cc1cc(Cl)ccc1NC(=O)NCCCl` returned a melting point of 190 °C.
Regarding `O=C(CCCCl)c1cc2c(s1)C(=O)NCCC2`, the melting point lay within 163 to 165 °C.
In turn, `Cn1c(C(F)(F)F)cc(=O)n(-c2cc(OCCOC=C(Cl)Cl)c(Cl)cc2F)c1=O` gave a melting point of 97 to 99 °C.
For the molecule `Cc1[nH]cnc1CSCCN=CNS(=O)(=O)c1ccccc1`, the melting point was 48 to 51 °C.
`Fc1ccc(C(F)(F)F)cc1-c1cccn2nc(Cl)nc12` returned a melting point of 88 to 89 °C.
Regarding `CCCCn1c(=O)cc(NN)n(Cc2ccc(OC)cc2)c1=O`, the melting point fell in the range of 167 to 170 °C.
`N#Cc1ncn2c(C(F)(F)F)cc(-c3ccccc3Cl)nc12`: the melting point stood at 180 °C.
Under `Cc1c(-c2ccc(F)cc2)nc(-c2ccccc2)n1C(C)C` stands 161 to 162 °C; under `CC1(C)Oc2cc(Br)c(Br)cc2O1`, 93 to 94 °C.
In turn, `O=c1[nH]c2ncc(-c3cccc(-c4nc[nH]n4)c3)nc2n1CC1CCCCC1` registered a melting point of 305 to 307 °C.
Take `Cc1ccn2nc(S(=O)(=O)Nc3c(Cl)cccc3Cl)nc2c1`: the melting point is 232 to 234 °C.
The molecule `CCC1(CCSC(C)=O)C(=O)N2CCCC(C(=O)OC(C)(C)C)N2C1=O` (stereo not given) had a melting point of 82 to 84 °C.
For `COc1ccc(F)cc1C(C)(C)CC(O)(C(=O)Nc1ccccc1)C(F)(F)F` (stereo not given) the value was 83 to 85 °C.
In turn, `C#CCc1c(C)nc2c(OCc3c(C)cccc3NC(=S)NC(=O)c3ccccc3)cccn12` had a melting point of 159 to 160 °C.
For the molecule `CNc1nc(-c2cccc(NC(=O)c3ccc(Cl)nc3)c2)c2cc(OC)c(OC)cc2n1`, the melting point was in the range of 157 to 159 °C.
`CCN1C(=O)C(C)(C)N=C(c2ccccc2Cl)c2cc([N+](=O)[O-])ccc21` registered a melting point of 178 °C.
For the molecule `O=C1C(=O)c2c(nc3ccccn23)-c2cccc(Br)c21`, the melting point was greater than 260 °C.
In turn, `CCCC1CCC(O)(c2ccc(-c3ccccc3)c(F)c2)CC1` (stereo not given) displayed a melting point of 45 to 72 °C.
The molecule `CC1(C)C(=O)Nc2cc(C(=O)CBr)ccc21` registered a melting point of 230 to 232 °C.

(Values after a melting point compilation (Tetko et al.; mined from patent text by program, amines drawn as free bases though some values may be those of a salt).)
